Results taken from patent publication US8314126B2, “Disubstituted phenylpiperdines/piperazines as modulators of dopamine neurotransmission” (NSAB, Filial af Neurosearch Sweden AB, Sverige, priority 2004, dated 2012).

Legend:
[1] = Activity of compounds of Formula 1 (test not specified); conditions: test not stated
[2] = Oral bioavailability in rat; format: in vivo; conditions: plasma, 12.5 umol/kg, orally 12.5 μmol/kg vs intravenously 5 μmol/kg, ratio of AUC
Method: Experiments are performed 24 hours after implantation of arterial and venous catheters. Test compound is administered orally at 12.5 μmol/kg or intravenously at 5 μmol/kg using the venous catheters, n=3 per group. Arterial blood samples are then taken during six hours at 0, 3, 9, 27, 60, 120, 180, 240, 300 and, 360 minutes after administration of the test compound. The oral bioavailability was calculated as the ratio of the AUC (Area under curve) obtained after oral administration over the AUC obtained after intravenous administration for each rat. The parameter AUC was calculated according to the following: […]
AUC: the area under the plasma concentration versus time curve from time zero to the last concentration measured (Clast), calculated by the log/linear trapezoidal method.
The levels of test compound are measured by means of liquid chromatography-mass spectrometry (LC-MS) (Hewlett-Packard 1100MSD Series). The LC-MS module includes a quaternary pump system, vacuum degasser, thermostatted autosampler, thermostatted column compartment, diode array detector and API-ES spray chamber. Data handling was performed with a HP ChemStation rev.A.06.03. system. Instrument settings:MSD mode: Selected ion monitoring (SIM) MSD polarity: Positiv Gas temp: 350° C. Drying gas: 13.0 l/min Nebulizer gas: 50 psig Capillary voltage: 5000 V Fragment or voltage: 70 V
Analytical column: Zorbax eclipse XDB-C8 (4.6*150 mm, 5 μm) at 20° C. The mobile phase was acetic acid (0.03%) (solvent A) and acetonitrile (solvent B). The flow rate of the mobile phase was 0.8 ml/min. The elution was starting at 12% of solvent B isocratic for 4.5 min, then increasing linearity to 60% over 4.5 min.
Extractions procedure: Plasma samples (0.25-0.5 ml) were diluted with water to 1 ml, and 60 pmol (100 μl) internal standard (−)-OSU6241 was added. The pH was adjusted to 11 by the addition of 25 μl saturated Na2CO3. […] The selective ion (MH^+) was monitored for each Example, and MH^+ 296 for (−)-OSU6241 ((3-[3-(ethylsulfonyl)phenyl]-1-propylpiperidine). […]

[3] = Metabolic stability in rat liver microsomes; format: in vitro ADME; conditions: 15 minutes incubation at 37° C., NADPH
Method: Rat liver microsomes were isolated as described by Forlin (1980) Tox Appl Pharm. 54(3) 420-430, with minor modifications e.g. 3 mL/g liver of a 0.1 M Na/K*PO4 buffer with 0.15M KCl, pH 7.4, (buffer 1) was added before homogenisation, the homogenate was centrifuged for 20 minutes instead of 15, the supernatant was ultracentrifuged at 100.000 g instead of 105.000 g and the pellet from the ultracentrifugation was resuspended in 1 mL/g liver of 20% v/v 87% glycerol in buffer 1.
1 μL of, 0.2 or 1 mM test substance diluted in water, and 10 μL 20 mg/mL rat liver microsome were mixed with 149 μL, 37° C. buffer 1 and the reaction was started by addition of 40 μL 4.1 mg/mL NADPH. After 0 or 15 minutes incubation at 37° C. in a heating block (LAB-LINE, MULTI-BLOK Heater or lab4you, TS-100 Thermo shaker at 700 rpm) the reaction was stopped by addition of 100 μL pure acetonitrile. […] The test compound was analysed using HPLC-MS (Hewlett-Packard 1100MSD Series) with a Zorbax SB-C18 column (2.1*150 mm, 5 μm) using 0.03% formic acid and acetonitrile as mobile phase (gradient) or a Zorbax Eclipse XDB-C18 (3*75 mm, 3.5 μm) using 0.03% acetic acid and acetonitrile as mobile phase (gradient). The 15 mM turnover was calculated as the fraction of test compound eliminated after 15 minutes, expressed in percent of 0 mM levels, i.e. 100*[conc test compound at 0 mM—concentration at 15 min]/cone at 0 mM. […]

[4] = test system: levels of dopamine and norepinephrine in the cortex; test: Microdialysis in awake and freely moving rats, cortex; format: in vivo, rat
Method: Remeron is injected (s.c.) at time-point 0. The values depicted in the graph represent percent of control in relation to baseline values. The microdialysis was performed in awake and freely moving rats. Error-bars=SEM
Example 2 is injected (s.c.) at time-point 0. The values depicted in the graph represent percent of control in relation to baseline values. The microdialysis was performed in awake and freely moving rats. Error-bars=SEM
Male Sprague-Dawley rats weighing 220-320 g were used throughout the experiments. Before the experiment the animals were group housed, five animals in each cage, with free access to water and food. The animals were housed at least one week after arrival prior to surgery and use in the experiments. Each rat was used only once for microdialysis.
We use a modified version (Waters, Lofberg et al. 1994) of the I-shaped probe (Santiago and Westerink 1990). […] Co-ordinates were calculated relative to bregma; dorsal striatum AP +1, ML ±2.6, DV −6.3; Pf cortex, AP +3.2, 8° ML ±1.2, DV −4.0 according to (Paxinos and Watson 1986). […]
30 μl of each sample was injected into the chromatograph. […] The currents generated by the two EC detectors are converted to digital data and evaluated using Chromelion software (Dionex, Sunnyvale, Calif.) on a PC. The method sample turn over time was 4.5 min and two parallel experiments are normally analysed simultaneously on the system. […]

MK-801 pre-treated rats = test: Locomotor activity in MK-801 pre-treated rats; conditions: MK-801 0.7 mg/kg i.p. alone, recorded between 30 and 60 minutes, ± SEM

CCCN1CCC(c2cccc(S(C)(=O)=O)c2C(F)(F)F)CC1 [4-[3-(methylsulfonyl)-2-(trifluoromethyl)phenyl]-1-propylpiperidine]
activity [1]: inactive

CCCN1CCC(c2cccc(S(C)(=O)=O)c2F)CC1 [Example 1, 4-[2-FLUORO-3-(METHYLSULFONYL)PHENYL]-1-PROPYLPIPERIDINE]
bioavailability [2]: ~100%

CCN1CCC(c2cccc(S(C)(=O)=O)c2F)CC1 [Example 2, 1-ETHYL-4-[2-FLUORO-3-(METHYLSULFONYL)PHENYL]-PIPERIDINE]
turnover at 15 minutes [3]: 1% | levels of dopamine and norepinephrine in the cortex ([4]; 50 μmol/kg s.c., pf. cortex, FIG. 2): elevate the levels of dopamine and norepinephrine in the cortex | bioavailability [2]: 87%

CCCN1CCC(c2cccc(C(F)(F)F)c2C#N)CC1 [Example 7, 2-(1-PROPYLPIPERIDIN-4-YL)-6-(TRIFLUOROMETHYL)BENZONITRILE]
bioavailability [2]: 29%

C[C@]12N[C@H](Cc3ccccc31)c1ccccc12 [MK-801]
Locomotor activity, MK-801 (MK-801 pre-treated rats): 51333 ± 2148 counts/30 min

CN1CCN2c3ncccc3Cc3ccccc3C2C1 (centres unmarked) [mirtazapine, reference compound]
extracellular norepinephrine and dopamine in the cortex ([4]; 10 mg/kg s.c., cortex, FIG. 1): increase predominantly extracellullar norepinephrine and dopamine in the cortex
